Test results reported in patent US10300151B2, “Methods and systems for noninvasive fluorescence-based functional imaging of kidneys” (Board of Regents, The University of Texas System, priority 2015, dated 2019).
“Also recorded” adds a separate entry of the source.

What was measured:
kidneys of Balb/c mice [1] = test: Noninvasive whole-body fluorescence kidney imaging of intact mice after i.v. injection of fluorophore; type: in vivo, mouse; conditions: for excretion route: fluorescence from bladder at 65 min / intestines after 10 min p.i.; for skin clearance half-life: observed during 60 min p.i.; for fraction of first phase of skin intensity increase / fraction of second phase of skin intensity increase / skin fluorescence intensity increase half-life, first phase / skin fluorescence intensity increase half-life, second phase: two-phase exponential growth, FIG. 10; for duration of kidney contrast/visualisation in noninvasive imaging: after i.v. injection
Description: Invasive and noninvasive imaging of normal mice, UUO mice and sham mice were performed using the following protocol. The protocol for invasive and noninvasive imaging differed in only in that for invasive imaging, the mouse's kidneys are exposed via removal of the mouse's back skin.
Prior to imaging, hair-removed Balb/c mice were anesthetized using 3% isoflurane. A catheter filled with PBS was inserted into each mouse's tail vein. The mouse, along with its tail vein catheter, was placed in supine position on the stage of fluorescence imaging system, with the mouse's back facing the excitation light and charge-coupled device (CCD) camera.
Fluorescence imaging of the each of mice proceeded as follows. Bright-field and fluorescence images of the each mouse was taken before injection with fluorophores. When its breathing rate decreased to 10-14 times per 15 s, the mouse was injected with 200 μL of a fluorophore solution. The fluorophore solutions used were PBS solutions of either an organic dye (Cy3, Cy7, or IRDye 800CW) or GS-AuNPs. The concentrations of Cy3, Cy7 and IRDye 800CW were 100, 10, and 10 μM, respectively, and these solutions were filtered through a 0.02 μm filter before injection. The solution of NIR-emitting GS-AuNPs contained 10 mg/mL gold atom as determined by inductively coupled plasma mass spectrometry (ICP-MS). Once the designated fluorophore solution was injected, whole body fluorescence images of each mouse were collected consecutively until 60 minutes post-injection. To ensure reproducible results, each mouse's anesthesia status was maintained at constant level before injection of fluorophores. Unlike clinical renographic procedures, no diuretic agents were used, and the animals were not hydrated prior to fluorescence imaging.
The parameters for acquiring the fluorescence images were shown as follows: Cy3, excitation at 550/10 nm, emission at 600/20 nm, exposure time of 2 s, no binning (FIGS. 4, 6, and 7); Cy7, excitation of 710/10 nm, emission of 790/20 nm, exposure time of 5 s, 2×2 binning (FIGS. 5, 8, and 9); IRDye 800CW, excitation of 710/10 nm, emission of 790/20 nm, 2×2 binning, exposure time of 5 s (FIGS. 21 and 55); GS-AuNPs, excitation of 710/10 nm, emission of 830/20 nm; exposure time of 30 s, 2×2 binning (FIGS. 24, 36, and 54).
Regions of interest (ROIs) designated “kidney areas” were defined around the left and right kidneys on the fluorescence image showing high kidney intensity. Four ROIs designated “surrounding tissue areas” were drawn in proximity to the each kidney; the mean values of these four ROIs were considered the “mean intensity of surrounding tissue area” for the respective kidney. The percentage of kidney contrast enhancement was calculated as follows:
[formula] For GS-AuNPs, the ROIs of “skin” were chosen from the back area close to the tail, so as to avoid the influence of bright kidneys. The time-dependent fluorescence intensity of skin (or kidneys) and percentage of kidney contrast enhancement (FIGS. 10-14, 22, 23, 25, 26, 37, 56, and 57). The curves were fitted with exponential functions to generate the kinetics of kidney contrast change or the kinetics of accumulation and clearance of the fluorophores in the skin and kidneys (FIGS. 10, 22, and 23). Deconvolution and parametric analysis of the kidney TFICs were performed using Origin 8 (FIGS. 27-35; Tables 1 and 2). Pathological Analysis

kidneys of Balb/c mice [2] = test: Invasive fluorescence kidney imaging of skin-removed mice after i.v. injection of fluorophore; type: in vivo, mouse; conditions: for time at which skin fluorescence intensity surpasses left and right kidney intensity: kidneys surgically exposed; for time of maximum skin fluorescence intensity: FIG. 26 (Cy7: FIG. 10); for peak skin fluorescence intensity as percentage of maximum kidney fluorescence intensity: kidney fluorescence from invasive imaging data, FIG. 26
Description: Invasive and noninvasive imaging of normal mice, UUO mice and sham mice were performed using the following protocol. The protocol for invasive and noninvasive imaging differed in only in that for invasive imaging, the mouse's kidneys are exposed via removal of the mouse's back skin. […] As shown in panel a, the kidneys are paired bean-shaped organs lying on either side of the vertebral column. The right kidney (RK) of a mouse is usually slightly higher than it left kidney (LK). Since the kidneys locate retroperitoneally against the dorsal body wall, LK (shown in panel b) and RK (shown in panel c) can be exposed once the back skin above the kidneys was removed. The interference of skin on kidney imaging can be avoided in such an invasive way. Prior to imaging, hair-removed Balb/c mice were anesthetized using 3% isoflurane. A catheter filled with PBS was inserted into each mouse's tail vein. The mouse, along with its tail vein catheter, was placed in supine position on the stage of fluorescence imaging system, with the mouse's back facing the excitation light and charge-coupled device (CCD) camera. Fluorescence imaging of the each of mice proceeded as follows. Bright-field and fluorescence images of the each mouse was taken before injection with fluorophores. When its breathing rate decreased to 10-14 times per 15 s, the mouse was injected with 200 μL of a fluorophore solution. The fluorophore solutions used were PBS solutions of either an organic dye (Cy3, Cy7, or IRDye 800CW) or GS-AuNPs. The concentrations of Cy3, Cy7 and IRDye 800CW were 100, 10, and 10 μM, respectively, and these solutions were filtered through a 0.02 μm filter before injection. The solution of NIR-emitting GS-AuNPs contained 10 mg/mL gold atom as determined by inductively coupled plasma mass spectrometry (ICP-MS). Once the designated fluorophore solution was injected, whole body fluorescence images of each mouse were collected consecutively until 60 minutes post-injection. To ensure reproducible results, each mouse's anesthesia status was maintained at constant level before injection of fluorophores. Unlike clinical renographic procedures, no diuretic agents were used, and the animals were not hydrated prior to fluorescence imaging. The parameters for acquiring the fluorescence images were shown as follows: Cy3, excitation at 550/10 nm, emission at 600/20 nm, exposure time of 2 s, no binning (FIGS. 4, 6, and 7); Cy7, excitation of 710/10 nm, emission of 790/20 nm, exposure time of 5 s, 2×2 binning (FIGS. 5, 8, and 9); IRDye 800CW, excitation of 710/10 nm, emission of 790/20 nm, 2×2 binning, exposure time of 5 s (FIGS. 21 and 55); GS-AuNPs, excitation of 710/10 nm, emission of 830/20 nm; exposure time of 30 s, 2×2 binning (FIGS. 24, 36, and 54). Regions of interest (ROIs) designated “kidney areas” were defined around the left and right kidneys on the fluorescence image showing high kidney intensity. Four ROIs designated “surrounding tissue areas” were drawn in proximity to the each kidney; the mean values of these four ROIs were considered the “mean intensity of surrounding tissue area” for the respective kidney. The percentage of kidney contrast enhancement was calculated as follows: [formula] For GS-AuNPs, the ROIs of “skin” were chosen from the back area close to the tail, so as to avoid the influence of bright kidneys. The time-dependent fluorescence intensity of skin (or kidneys) and percentage of kidney contrast enhancement (FIGS. 10-14, 22, 23, 25, 26, 37, 56, and 57). The curves were fitted with exponential functions to generate the kinetics of kidney contrast change or the kinetics of accumulation and clearance of the fluorophores in the skin and kidneys (FIGS. 10, 22, and 23). Deconvolution and parametric analysis of the kidney TFICs were performed using Origin 8 (FIGS. 27-35; Tables 1 and 2). Pathological Analysis

[3] = in mice, blood; cited from earlier work
kidneys of UUO mice = test: Noninvasive fluorescence renography in unilateral ureter obstruction (UUO) and sham mice; type: in vivo, mouse
Source text: To obtain unilateral […] obstruction (UUO) mice, male Balb/c mice (6-8 weeks old, with about 20 g) were anesthetized with isoflurane. For each mouse, the left kidney was exposed an incision on the left flank, and the left ureter was obstructed completely near the renal pelvis using a nonabsorbable suture. For mice in the sham group, the left ureter was exposed using the same surgical procedure but ureter ligation was not performed. Female Balb/c mice (8-10 weeks old, weighing about 20 g) were used as normal (non-UUO) mice for other experiments, such as those shown in FIGS. 4-19. The hair on the Balb/c mice was removed using hair removal lotion at least 24 h before the imaging experiments.
Fluorescence imaging of the each of mice proceeded as follows. Bright-field and fluorescence images of the each mouse was taken before injection with fluorophores. […] The solution of NIR-emitting GS-AuNPs contained 10 mg/mL gold atom as determined by inductively coupled plasma mass spectrometry (ICP-MS). Once the designated fluorophore solution was injected, whole body fluorescence images of each mouse were collected consecutively until 60 minutes post-injection. […] Unlike clinical renographic procedures, no diuretic agents were used, and the animals were not hydrated prior to fluorescence imaging. […]

[4] = 0.6 min p.i., noninvasive, N=3, mean±s.d.
[5] = 60 min p.i., noninvasive, N=3, mean±s.d.
[6] = noninvasive, single exponential decay

Compound	excretion route (kidneys of Balb/c mice [1])	skin clearance half-life (kidneys of Balb/c mice [1])	fraction of first phase of skin intensity increase (kidneys of Balb/c mice [1]) [%]	fraction of second phase of skin intensity increase (kidneys of Balb/c mice [1]) [%]	skin fluorescence intensity increase half-life, first phase (kidneys of Balb/c mice [1]) [min]	skin fluorescence intensity increase half-life, second phase (kidneys of Balb/c mice [1]) [min]	time at which skin fluorescence intensity surpasses left and right kidney intensity (kidneys of Balb/c mice [2]; invasive imaging) [min p.i.]	duration of kidney contrast/visualisation in noninvasive imaging (kidneys of Balb/c mice [1]; intact mouse)	time of maximum skin fluorescence intensity (kidneys of Balb/c mice [2]) [min p.i.]	peak skin fluorescence intensity as percentage of maximum kidney fluorescence intensity (kidneys of Balb/c mice [2]) [%]	further results
CCN1C(=CC=CC2=[N+](CCCCCC(=O)O)c3ccc(S(=O)(=O)O)cc3C2(C)C)C(C)(C)c2cc(S(=O)(=O)[O-])ccc21 [Cy3, disulfo-Cy3 carboxylic acid]	can be excreted into urine through renal clearance	56.5 min	18.1	81.9	0.2	2.8	1.5	–	–	–	contrast enhancement of noninvasively imaged mouse kidney (kidneys of Balb/c mice [1]; intact mouse, Ex/Em 550/600 nm): failed to enhance contrast
CCN1C(=CC=CC=CC=CC2=[N+](CCCCCC(=O)O)c3ccc(S(=O)(=O)O)cc3C2(C)C)C(C)(C)c2cc(S(=O)(=O)[O-])ccc21 [Cy7, disulfo-Cy7 carboxylic acid]	can be excreted into urine through renal clearance; also recorded: can also be excreted through a hepatic route	No clearance of Cy7 from the skin was observed during 60 min p.i.	33.5	66.5	1.5	7.4	13.2	less than 10 min	35	95.3	–
CC1(C)C(/C=C/C2=C(Oc3ccc(S(=O)(=O)O)cc3)C(=C/C=C3/N(CCCCS(=O)(=O)O)c4ccc(S(=O)(=O)[O-])cc4C3(C)C)/CCC2)=[N+](CCCCCC(=O)O)c2ccc(S(=O)(=O)O)cc21 [IRDye 800CW, IRDye 800CW carboxylate]	–	–	–	–	–	–	–	less than 5 min	25	75.5±9.3	elimination half-life (t1/2β) [3]: 58.8 ± 4.8 min; time-dependent intensity curves in sham vs UUO mice (kidneys of UUO mice; LK, RK and skin, FIGS. 56-57): very similar profiles of time-dependent intensity curve in sham and UUO mice; visibility of kidneys in UUO mouse (kidneys of UUO mice; noninvasive imaging, UUO mouse): both UUO LK and RK disappeared after 5 min p.i.; percentage contrast enhancement of left kidney (LK) (kidneys of Balb/c mice [1]; [4]): 67.6±7.1%; percentage contrast enhancement of right kidney (RK) (kidneys of Balb/c mice [1]; [4]): 49.9±9.0%; percentage of contrast enhancement, LK (kidneys of Balb/c mice [1]; [5]): −4.7±0.8%; percentage of contrast enhancement, RK (kidneys of Balb/c mice [1]; [5]): −4.8±5.1%; time at which skin fluorescence intensity is halfway to saturation (kidneys of Balb/c mice [1]; noninvasive imaging, FIG. 22): 4.1 min; decay half-life of percentage contrast enhancement, LK (kidneys of Balb/c mice [1]; [6]): 4.2 min; decay half-life of percentage contrast enhancement, RK (kidneys of Balb/c mice [1]; [6]): 4.5 min; clearance half-life from kidney, LK, first component (kidneys of Balb/c mice [2]; invasive imaging, FIG. 23): 4.3 min; clearance half-life from kidney, LK, second component (kidneys of Balb/c mice [2]; invasive imaging, FIG. 23): 28.0 min; clearance half-life from kidney, RK, first component (kidneys of Balb/c mice [2]; invasive imaging, FIG. 23): 4.7 min; clearance half-life from kidney, RK, second component (kidneys of Balb/c mice [2]; invasive imaging, FIG. 23): 18.9 min; fraction of first clearance component, LK (kidneys of Balb/c mice [2]; invasive imaging, FIG. 23): 50.1%; fraction of first clearance component, RK (kidneys of Balb/c mice [2]; invasive imaging, FIG. 23): 46.0%; fraction of second clearance component, LK (kidneys of Balb/c mice [2]; invasive imaging, FIG. 23): 49.9%; fraction of second clearance component, RK (kidneys of Balb/c mice [2]; invasive imaging, FIG. 23): 54.0%
